According to BindingDB's records for patent US20250352549 (Avelos Therapeutics, 2025):

Biological target: T1, Serine/threonine-protein kinase greatwall (Human, UniProt Q96GX5)
T1 sequence (Q96GX5 whole entry): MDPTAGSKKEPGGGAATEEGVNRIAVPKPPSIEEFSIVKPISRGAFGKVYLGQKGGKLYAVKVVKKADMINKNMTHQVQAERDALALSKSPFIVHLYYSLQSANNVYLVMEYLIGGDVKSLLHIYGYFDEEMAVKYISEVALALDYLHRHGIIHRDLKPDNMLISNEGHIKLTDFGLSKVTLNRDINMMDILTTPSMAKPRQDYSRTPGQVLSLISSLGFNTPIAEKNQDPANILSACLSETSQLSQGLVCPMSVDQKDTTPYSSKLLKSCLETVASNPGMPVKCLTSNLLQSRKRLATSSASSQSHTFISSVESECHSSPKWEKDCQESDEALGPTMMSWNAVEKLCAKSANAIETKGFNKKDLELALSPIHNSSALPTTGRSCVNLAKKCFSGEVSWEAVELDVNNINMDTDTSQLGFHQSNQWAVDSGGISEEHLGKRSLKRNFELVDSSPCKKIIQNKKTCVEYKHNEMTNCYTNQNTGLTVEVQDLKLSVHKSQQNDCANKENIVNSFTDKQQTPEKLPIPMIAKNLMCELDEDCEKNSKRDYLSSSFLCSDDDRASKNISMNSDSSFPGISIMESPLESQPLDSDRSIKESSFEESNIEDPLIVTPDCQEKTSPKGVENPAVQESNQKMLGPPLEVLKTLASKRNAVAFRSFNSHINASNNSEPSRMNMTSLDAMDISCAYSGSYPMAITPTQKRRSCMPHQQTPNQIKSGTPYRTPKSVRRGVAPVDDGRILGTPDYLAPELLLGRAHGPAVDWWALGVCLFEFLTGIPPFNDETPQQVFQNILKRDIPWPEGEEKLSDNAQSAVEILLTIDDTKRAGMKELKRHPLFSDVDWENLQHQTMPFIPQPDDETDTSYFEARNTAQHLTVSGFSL
Assay: MASTL Activity Assay
Description: Wild-type human active MASTL (154 pM) was incubated in assay buffer (50 mM HEPES, 100 mM NaCl, 0.1 mM EGTA, 10 mM MgCl2, 0.01% Tween-20, 0.5 mM TCEP, pH 7.5) with biotin tagged 40-mer ENSA peptide (10 nM), test compound and ATP (18 μM) for 60 minutes at room temperature. Test compounds were assayed using a 12-point dose range consisting of a 0, DMSO control and 10 sequential doses consisting from 0.0005, 0.002, 0.005, 0.014, 0.04, 0.12, 0.37, 1.11, 3.33 and 10 μM. The DMSO concentration was the same (1%) in all samples. An equal volume of detection buffer (assay buffer+267.5 pM Ab-K, 1.25 nM SA-D2, 20 mM EDTA and 400 mM KF) was added to stop the reaction to make a final volume of 20 μl, RT for 60 mins. Activity was measured using a plate reader (PerkinElmer EnSight) by the FRET signal generated between SA-D2 (streptavidin-D2) and Ab-K (anti-phospho-Serine 67 ENSA antibody (rabbit polyclonal, using standard techniques by a commercial supplier) conjugated to Cryptate). HTRF reagents (CisBio) were prepared as per the manufacturer recommendations. The 40-mer biotin-tagged ENSA peptide (synthesised by Bionics) used was based around Serine 67 on ENSA ([…]).

Row | Compound | IC50
1 | Cc1ncc2ccc(-c3nc(N)nc(NC(c4ccccc4)c4c[nH]c(C(F)(F)F)n4)n3)cn12 (configuration not stated) [US20250352549, Example 2] | > 1000 nM
2 | Cc1ncc2ccc(-c3nc(C#N)nc(NC(C)(C)c4ccn(C(F)F)n4)n3)cn12 [US20250352549, Example 12] | > 1000 nM
3 | Cc1ncc2ncc(-c3nc(N)nc(NC(C)(C)c4ccn(C(F)F)n4)n3)cn12 [US20250352549, Example 13] | > 1000 nM
4 | Cc1ncc2ccc(-c3nc(C#N)nc(NC(Cc4cccc(Cl)c4Cl)C(=O)O)n3)cn12 (configuration not stated) [US20250352549, Example 15] | > 1000 nM
5 | Cc1ncc2ccc(-c3nc(N)nc(NC(Cc4cccc(Cl)c4Cl)c4ncno4)n3)cn12 (configuration not stated) [US20250352549, Example 23] | > 1000 nM
6 | CNc1ncc2ccc(-c3nc(N)nc(NC(C)(C)c4ccn(C(F)F)n4)n3)cn12 [US20250352549, Example 37] | < 500 nM
7 | CC(C)(Nc1nc(N)nc(-c2ccc3cnc(O)n3c2)n1)c1ccn(C(F)F)n1 [US20250352549, Example 38] | > 1000 nM
8 | [2H]C([2H])([2H])n1ncc2ccc(-c3cc(NC(C)(C)Cn4ccc(C(F)(F)F)n4)nc(N)n3)cc21 [US20250352549, Example 40] | < 500 nM
9 | CC(C)(Cc1cccc(Cl)c1Cl)Nc1nc(N)nc(-c2ccc3cnc(N)n3c2)n1 [US20250352549, Example 41] | < 500 nM
10 | Nc1nc(NCCc2ccc(Cl)c(F)c2F)nc(-c2ccc3cnc(N)n3c2)n1 [US20250352549, Example 42] | < 500 nM
11 | CC(C)CC(Nc1nc(N)nc(-c2ccc3[nH]ncc3c2)n1)c1c[nH]c(C(F)(F)F)n1 (configuration not stated) [US20250352549, Example 43] | in the range around 750 nM
12 | Cc1nn(C)c2cc(-c3nc(N)nc(NC(c4c[nH]c(C(F)(F)F)n4)C(C)C)n3)ccc12 (configuration not stated) [US20250352549, Example 44] | < 500 nM
13 | CC(C)C(Nc1nc(N)nc(-c2ccc3c(F)nn(C)c3c2)n1)c1c[nH]c(C(F)(F)F)n1 (configuration not stated) [US20250352549, Example 45] | < 500 nM
14 | Cn1ncc2cc(-c3nc(N)nc(NC(C)(C)c4c[nH]c(C(F)(F)F)n4)n3)ccc21 [US20250352549, Example 46] | < 500 nM
15 | Cn1ncc2cc(-c3nc(N)nc(NC(C)(C)c4ccn(C(F)F)n4)n3)ccc21 [US20250352549, Example 48] | < 500 nM
16 | CNc1nc(NC(C)(C)c2ccn(C(F)F)n2)nc(-c2ccc3cnc(C)n3c2)n1 [US20250352549, Example 135] | < 500 nM
17 | CNc1nc(NC(Cc2cccc(Cl)c2Cl)C(=O)O)nc(-c2ccc3cnc(C)n3c2)n1 (configuration not stated) [US20250352549, Example 138] | < 500 nM
18 | Cc1ncc2ccc(-c3nc(N)nc(NC(C)c4ccc(F)cn4)n3)cn12 (configuration not stated) [US20250352549, Example 139] | < 500 nM
19 | CCC(Nc1nc(N)nc(-c2ccc3cnc(C)n3c2)n1)c1ccc(F)cn1 (configuration not stated) [US20250352549, Example 140] | < 500 nM
20 | Cc1ncc2ccc(-c3cc(NC(Cc4cccc(F)c4F)C(=O)O)nc(N)n3)cn12 (configuration not stated) [US20250352549, Example 144] | < 500 nM
21 | CNc1nc(NC(Cc2cccc(Cl)c2Cl)C(=O)O)cc(-c2ccc3cnc(C)n3c2)n1 (configuration not stated) [US20250352549, Example 145] | < 500 nM
22 | Cc1nc(F)c2ccc(-c3nc(N)nc(NC(c4c[nH]c(C(F)(F)F)n4)C(C)C)n3)cn12 (configuration not stated) [US20250352549, Example 147] | < 500 nM
23 | Cc1ncc2ccc(-c3cc(NC(Cc4cccc(Cl)c4Cl)C(N)=O)nc(N)n3)cn12 (configuration not stated) [US20250352549, Example 148] | < 500 nM
24 | Cc1ncc2ccc(-c3cc(NC(c4c[nH]c(C(F)(F)F)n4)C(C)C)nc(N)n3)cn12 (configuration not stated) [US20250352549, Example 150] | < 500 nM
25 | Cc1ncc2ccc(-c3nc(N)nc(NCc4c[nH]c(C(F)(F)F)n4)n3)cn12 [US20250352549, Example 151] | < 500 nM
26 | Cc1ncc2ccc(-c3nc(N)nc(NC(c4c[nH]c(C(F)(F)F)n4)C4CC4)n3)cn12 (configuration not stated) [US20250352549, Example 154] | < 500 nM

Further lines, results first:

Row | IC50 | Compound
27 | < 500 nM | Cc1ncc2ncc(-c3nc(N)nc(NC(C)(C)c4ccn(C(F)F)n4)n3)cn12 [US20250352549, Example 1]
28 | < 500 nM | COC(=O)C(Cc1cccc(Cl)c1Cl)Nc1cc(-c2ccc3cnc(C)n3c2)nc(N)n1 (configuration not stated) [US20250352549, Example 3]
29 | < 500 nM | COC(=O)C(Cc1cccc(Cl)c1Cl)Nc1nc(N)nc(-c2ccc3cnc(C)n3c2)n1 (configuration not stated) [US20250352549, Example 4]
30 | < 500 nM | [2H]C([2H])([2H])Nc1nc(NC(CC)c2c[nH]c(C(F)(F)F)n2)nc(-c2ccc3cnc(C)n3c2)n1 (configuration not stated) [US20250352549, Example 5]
31 | < 500 nM | CCC(Nc1nc(N)nc(-c2ccc3[nH]ncc3c2)n1)c1c[nH]c(C(F)(F)F)n1 (configuration not stated) [US20250352549, Example 8]
32 | < 500 nM | [2H]C([2H])([2H])n1ncc2ccc(-c3nc(N)nc(NC(C)(C)c4ccn(C(F)F)n4)n3)cc21 [US20250352549, Example 9]
33 | < 500 nM | CC(C)(Nc1nc(N)nc(-c2ccc3cnc(N)n3c2)n1)c1ccn(C(F)F)n1 [US20250352549, Example 10]
34 | < 500 nM | CC(C)(Nc1nc(N)nc(-c2ccc3cnc(N)n3c2)n1)c1c[nH]c(C(F)(F)F)n1 [US20250352549, Example 11]
35 | < 500 nM | Cc1ncc2ccc(-c3cc(NCC(N)c4cccc(Cl)c4Cl)nc(N)n3)cn12 (configuration not stated) [US20250352549, Example 16]
36 | < 500 nM | CNC(CNc1cc(-c2ccc3cnc(C)n3c2)nc(N)n1)c1cccc(Cl)c1Cl (configuration not stated) [US20250352549, Example 17]
37 | < 500 nM | CC(=O)NC(CNc1cc(-c2ccc3cnc(C)n3c2)nc(N)n1)c1cccc(Cl)c1Cl (configuration not stated) [US20250352549, Example 18]
38 | < 500 nM | CC(=O)N(C)C(CNc1cc(-c2ccc3cnc(C)n3c2)nc(N)n1)c1cccc(Cl)c1Cl (configuration not stated) [US20250352549, Example 19]
39 | < 500 nM | CONC(=O)C(Cc1cccc(Cl)c1Cl)Nc1nc(N)nc(-c2ccc3cnc(C)n3c2)n1 (configuration not stated) [US20250352549, Example 20]
40 | < 500 nM | Cc1ncc2ccc(-c3nc(N)nc(NC(Cc4cccc(Cl)c4Cl)c4nnn[nH]4)n3)cn12 (configuration not stated) [US20250352549, Example 21]
41 | < 500 nM | Cc1ncc2ccc(-c3nc(N)nc(NC(Cc4cccc(Cl)c4Cl)c4nc[nH]n4)n3)cn12 (configuration not stated) [US20250352549, Example 22]
42 | < 500 nM | CC(C)C(Nc1nc(N)nc(-c2ccc3[nH]ncc3c2)n1)c1c[nH]c(C(F)(F)F)n1 (configuration not stated) [US20250352549, Example 24]
43 | < 500 nM | CNc1nc(NC(C)(C)c2ccn(C(F)F)n2)nc(-c2ccc3[nH]ncc3c2)n1 [US20250352549, Example 26]
44 | < 500 nM | CNc1nc(NC(c2ccn(C(F)F)n2)C(C)C)nc(-c2ccc3[nH]ncc3c2)n1 (configuration not stated) [US20250352549, Example 27]
45 | < 500 nM | [2H]C([2H])([2H])n1ncc2ccc(-c3nc(N)nc(NC(c4c[nH]c(C(F)(F)F)n4)C(C)C)n3)cc21 (configuration not stated) [US20250352549, Example 28]
46 | < 500 nM | [2H]C([2H])([2H])Nc1nc(NC(C)(C)c2ccn(C(F)F)n2)nc(-c2ccc3cnc(N)n3c2)n1 [US20250352549, Example 30]
47 | < 500 nM | [2H]C([2H])([2H])Nc1nc(NC(c2c[nH]c(C(F)(F)F)n2)C(C)C)nc(-c2ccc3cnn(C)c3c2)n1 (configuration not stated) [US20250352549, Example 31]
48 | < 500 nM | Nc1nc(NC(c2c[nH]c(C(F)(F)F)n2)C2CC2)nc(-c2ccc3[nH]ncc3c2)n1 (configuration not stated) [US20250352549, Example 32]
49 | < 500 nM | Nc1nc(NC(c2ccn(C(F)F)n2)C2CC2)nc(-c2ccc3[nH]ncc3c2)n1 (configuration not stated) [US20250352549, Example 33]
50 | < 500 nM | CC(C)C(Nc1nc(N)nc(-c2ccc3c(cnn3C)c2)n1)c1c[nH]c(C(F)(F)F)n1 (configuration not stated) [US20250352549, Example 34]
51 | < 500 nM | Cc1n[nH]c2ccc(-c3nc(N)nc(NC(c4c[nH]c(C(F)(F)F)n4)C(C)C)n3)cc12 (configuration not stated) [US20250352549, Example 35]
52 | < 500 nM | [2H]C([2H])([2H])n1ncc2ccc(-c3nc(N)nc(NC(C)(C)Cc4cccc(F)n4)n3)cc21 [US20250352549, Example 36]
